Measured values as given in the METLIN SMRT retention time set (Domingo-Almenara et al. 2019).

Assay: gradient 5% acetonitrile 3 min, to 50% in 2 min, to 85% in 15 min, held 3 min, 100 µL/min
Settings: column: Zorbax Extend-C18 2.1 x 50 mm; eluents: water / acetonitrile, 0.1% formic acid
How it was run: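 Values are retention times taken from adduct peaks that software picked and an analyst inspected. The pure standards were run as mixtures of ~100 molecules on HPLC linked to a quadrupole time-of-flight mass spectrometer, in positive and negative ionization mode. A Zorbax Extend-C18 column (2.1 × 50 mm, 1.8 μm) was used at 100 μL/min with water and acetonitrile, each including 0.1% formic acid.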

Row | RP-LC retention time | SMILES
1 | 822 s | COc1ccc(-c2cc3n(n2)CCCN(C(=O)Cc2ccsc2)C3)cc1
2 | 822 s | O=C(CCc1nnc2c3cc(-c4ccc(F)cc4)nn3ccn12)NCc1ccc(Cl)cc1
3 | 1270 s | CCn1c(=O)c(C)nc2cc(-c3noc(-c4ccc(Br)cc4)n3)ccc21
4 | 819 s | Cn1cccc1C(=O)C(=O)N1CCN(c2ccc(F)cc2)CC1
5 | 845 s | COCCN(CC(=O)N1CCc2sccc2C1COc1ccccc1OC)C(=O)C(C)C (centres undefined)
6 | 744 s | Cc1noc2ncn(CC(=O)Nc3ccc(F)cc3F)c(=O)c12
7 | 1110 s | COc1cccc(-c2ccc(=O)n(CCc3nc(-c4ccc(Br)cc4)no3)n2)c1
8 | 588 s | Cc1cccc(NC(=O)Cn2nnc(-c3ccccc3)n2)c1C
9 | 656 s | O=C(NCCNC(=O)[C@@H]1CCCN1C(=O)c1ccc(F)cc1)c1ccc(F)cc1
10 | 636 s | COc1ccc(N2CCN(C(=O)c3cc(NC(=O)C(C)C)cc4nc(C)ccc34)CC2)cc1
11 | 861 s | COc1cc(=O)n(-c2ccccc2C)nc1C(=O)Nc1nc2ccc(C)cc2s1
12 | 865 s | COc1ccc(CNC(=O)c2nnc(-c3ccc(S(=O)(=O)N(C)C)cc3)o2)cc1OC
13 | 839 s | COCCNC(=O)N1CCCn2nc(-c3ccc(C(F)(F)F)cc3)cc2C1
14 | 645 s | CCc1nc(N)n(CC(=O)NCc2ccc(Cl)cc2)c(=O)c1C
15 | 868 s | COc1ccc(OCc2nc(-c3ccc(NS(C)(=O)=O)cc3)no2)cc1
16 | 961 s | Cc1nn2c(nnc3c(=O)n(CCc4c[nH]c5ccc(F)cc45)ccc32)c1-c1ccc(F)cc1

Row | RP-LC retention time | SMILES
17 | 919 s | COc1ccc(N2CCN(CCNc3cc(C(=O)O)c4ccccc4n3)CC2)cc1
18 | 1050 s | COc1ccc(OCC(=O)Nc2nc(-c3ccccc3)cs2)cc1
19 | 1130 s | CCCCOc1ccc(C(=O)Nc2ccc(F)cc2F)cc1
20 | 616 s | CCN1CCC(N(Cc2ccc3c(c2)OCO3)C(=O)Nc2ccc(OC)c(OC)c2)CC1
21 | 942 s | Cc1ccc(C)c(N2CCN(c3ccnc(SCC(=O)NCc4ccc(Cl)cc4)n3)CC2)c1
22 | 989 s | CCc1c(C)nc2nc(-c3ccccc3)nn2c1Nc1cccc(OC)c1
23 | 772 s | CCOC(=O)CNC(=O)NCc1cccn1Cc1ccccc1F
24 | 648 s | CCn1c(=O)n(CC)c2cc(N3CCCC3)c(NC(=O)NCc3ccc(F)cc3)cc21
25 | 730 s | CCOC(=O)COc1cc(-c2ccc(F)cc2)nc2ccc(NC(=O)COC)cc12
26 | 990 s | COC(=O)c1c(C)c(C(=O)C(C)N(Cc2ccc(F)cc2)C(=O)C(C)C)c(C)n1C (centres undefined)
27 | 832 s | CCCn1cc(CCNC(=O)c2ccc(Br)cc2)c2cccnc21
28 | 652 s | CCCNC(=O)C1CCCN(c2ccc(SCC(=O)NCc3ccc(F)cc3)nn2)C1 (centres undefined)
29 | 920 s | COc1ccc(-c2noc(C3CCCN3C(=O)Nc3ccc(Cl)cc3)n2)cc1 (centres undefined)
30 | 906 s | Cc1cc(C)cc(Oc2nccn3c(=O)n(CC(=O)Nc4c(C)cccc4C)nc23)c1
31 | 819 s | COC(=O)C1=CN(c2ccc(OC)cc2)c2ccccc2S1(=O)=O
32 | 776 s | COc1ccc(-c2nc(-c3ccc4c(c3)ncn4CCC(=O)N3CCCC3)no2)cc1OC

The next lines start with the compound.

Row | SMILES | RP-LC retention time
33 | Cc1nn(-c2ccc(Cl)cc2)c2nc(N3CCCC(C(=O)NCc4cccc(F)c4)C3)sc12 (centres undefined) | 1240 s
34 | CN1CCCc2cc(C(=O)NCc3ccccc3)sc21 | 882 s
35 | Cc1noc(C)c1CC(=O)N1CC(F)(F)C[C@H]1COc1ccc2c(c1)CCC2 | 1060 s
36 | Cc1sc(-n2c(C)c3c(C)nnc(C)c3c2C)nc1-c1ccccc1 | 687 s
37 | Cc1ccc(NC(=O)c2cn3c(n2)CCCC3)cc1C | 604 s
38 | CCN1C(=O)c2ccccc2Oc2ccc(C(=O)NCc3ccc4c(c3)OCO4)cc21 | 1170 s
39 | O=C(c1cccc(F)c1)N1CCC(n2c(-c3ccoc3)nc3cccnc32)C1 (centres undefined) | 735 s
40 | Cc1nn(C(C)C(=O)NCCCN2CCc3ccccc3C2)c(=O)c2c(C)n(-c3ccccc3)nc12 (centres undefined) | 690 s
41 | COCCc1noc(COC2CCN(C(=O)C3CCCO3)CC2)n1 (centres undefined) | 618 s
42 | O=S(=O)(Nc1ccc(Cn2cncn2)cc1)c1ccc(F)c(F)c1 | 721 s
43 | COc1ccc(CCO[C@@H]2CCCC[C@H]2N2CC[C@@H](O)C2)cc1OC | 684 s
44 | COc1ccc(CN2CC3(CCN(S(=O)(=O)c4c(C)noc4C)CC3)C2=O)cc1 | 842 s
45 | CCc1ccc(OCC(=O)Nc2cnn(CC)c(=O)c2N2CCCCC2)cc1 | 1240 s
46 | Cc1ccccc1CNC(=O)c1ccc(CN2CCN(Cc3ccccc3)C(=O)C2=O)cc1 | 797 s
47 | CC1CCN(S(=O)(=O)c2ccc(-c3nnc(C(=O)N4CCCCCC4)o3)cc2)CC1 | 1100 s
48 | Cc1cccc(C)c1NC(=O)CSc1ccc(N2CCCC(C(=O)NC3CC3)C2)nn1 (centres undefined) | 628 s
49 | COCc1ncc(C)n1CC1CN(C(=O)C2(c3ccc(OC)cc3)CC2)C1 | 625 s
50 | Cc1ccccc1S(=O)(=O)N1CCC(c2cc(N)on2)CC1 | 779 s
51 | O=C(c1cnn(-c2ccccc2)n1)N1CCCC(COCc2ccccc2)C1 (centres undefined) | 1110 s

Row | SMILES | RP-LC retention time
52 | O=C(NC1CCN(Cc2ccccc2)CC1)C1CCCN(S(=O)(=O)N2CCOCC2)C1 (centres undefined) | 593 s
53 | CN(C)c1ncncc1N1CCC(C(=O)N2CCN(c3ccc(Cl)cc3)CC2)CC1 | 692 s
54 | CCC(=O)N(C1CCOCC1)C1CCN(S(=O)(=O)c2ccc(F)cc2F)CC1 | 998 s
55 | CCCn1c(=O)c(C)nc2cc(-c3noc(-c4sccc4C)n3)ccc21 | 1240 s
56 | Cc1ccccc1Cc1c(C)nc2nc(SCC(=O)NCCN3CCOCC3)nn2c1C | 655 s
57 | O=C(Cn1nc2n(c1=O)CCCCC2)Nc1ccc(Cl)cc1 | 730 s
58 | CC(C)CCC(=O)N1CCc2nc(N3CCN(C)CC3)sc2C1 | 609 s
59 | CCN1CCCC1CNC(=O)c1nnc(-c2oc3c(C)cccc3c2C)o1 (centres undefined) | 725 s
60 | Nc1cc(C2CCN(S(=O)(=O)c3cccc(C(F)(F)F)c3)CC2)no1 | 794 s
61 | O=C(c1ccco1)N1CCCn2cc(-c3ccc4c(c3)OCO4)nc21 | 661 s
62 | CCOc1ccccc1C(=O)NCC1CCN(Cc2ccccn2)CC1 | 561 s
63 | O=C(CCC1CCN(S(=O)(=O)c2ccccc2)CC1)NC1CCCC1 | 852 s
64 | CC(C)n1c(=O)sc2cc(S(=O)(=O)N3CCC(C(=O)NCCC4=CCCCC4)CC3)ccc21 | 1020 s
65 | Cc1cccc(Cn2nc3ccc(S(=O)(=O)N4CCCCCC4)cn3c2=O)c1 | 1000 s
66 | COc1cc(OC)cc(-c2nc(-c3ccc4c(c3)oc(=O)n4C)no2)c1 | 1060 s
67 | CC(C)Cn1c(=O)c2cc(C(=O)N(C)CC(=O)N3CCCCCC3)nn2c2ccccc21 | 891 s
68 | COc1cccc(N2C(=O)NC3CC2(C)Oc2ccc(OC)cc23)c1 (centres undefined) | 787 s
69 | COCc1nc(-c2ccc(OC3CCN(C(=O)C4(c5ccccc5)CC4)C3)cc2)no1 (centres undefined) | 932 s
70 | COc1ccc(C2C(=O)N(C3CCCCC3)CC(=O)N2Cc2cccs2)cc1 (centres undefined) | 952 s

Row | SMILES | RP-LC retention time
71 | COc1ccc(C2CC(=O)N(c3cccc(Br)c3)C(=O)C2)cc1 | 970 s
72 | Cc1ccc(S(=O)(=O)N2CCC(C(=O)NCc3csc(-c4cccs4)n3)CC2)cc1C | 950 s
73 | COc1ccc2[nH]cc(CCO)c2c1 | 660 s
74 | Cc1nc(C(=O)N2CCC[C@H]2Cc2nnc(-c3ccccc3)o2)c(-c2ccccc2F)s1 | 1050 s
75 | O=C(CN1C(=O)C2CCCCN2c2ccc(S(=O)(=O)N3CCCC3)cc21)NC1CCCCCC1 (centres undefined) | 1000 s
76 | Cc1ccc2c(C(=O)NCC(C)C)cc(NC(=O)C3CCC3)cc2n1 | 613 s
77 | Cc1cc(-c2nnc(C3CCC3)o2)c(C)n1CC(=O)Nc1ccc(Br)cc1F | 982 s
78 | CC(=O)N1CCN(S(=O)(=O)c2ccc(C(=O)O)cc2)CC1 | 591 s
79 | COc1ccc(S(=O)(=O)N2CCCC(C(=O)NCCO)C2)cc1OC (centres undefined) | 597 s
80 | COc1ccc(CN2CC(F)(F)C[C@H]2c2nnc(-c3cnccn3)o2)cc1C | 912 s
81 | COc1ccc(CNC(=O)c2c(C)sc3ccn(C)c(=O)c23)cc1OC | 674 s
82 | O=C(Nc1cccc(-c2nnc3n2CCCC3)c1)C1CCCC1 | 673 s
83 | CCN(CC)C(=O)C1CCCN(c2ncnc3c2nc2n3CCCCC2)C1 (centres undefined) | 708 s
84 | Cc1ccc(Cl)cc1NC(=O)c1cccn1Cc1noc(C2CC2)n1 | 1000 s
85 | C[C@@H](NC(=O)c1ncnc(N)c1Cl)c1ncc(C(=O)Nc2cc(C(F)(F)F)c(Cl)cn2)s1 | 913 s
86 | Cc1nc(N2CCOCC2)c2c(C(=O)N3CCCc4ccccc43)c(C)oc2n1 | 853 s
87 | Cc1csc(-c2cc(S(=O)(=O)NCCN3CCCC3)cn2CC(=O)N2CCCCC2)n1 | 649 s
88 | CC(C)CCNC(=O)c1c2c(cn(-c3ccccc3)c1=O)C(=O)CC(C)(C)C2 | 1030 s
89 | CCn1c(C(=O)NCCCc2ccccc2)cc2sccc21 | 1050 s
